Laboratory results taken from patent US5484778A, “Phthalocyanine photosensitizers for photodynamic therapy and methods for their use” (priority 1993, dated 1996).
Read-outs that look alike come from different tables or passages of the source.

Tests used:
L5178Y cells = assay: Induction of apoptosis (DNA fragmentation) in L5178Y-R cells (Table 6); type: cell-based, mouse; conditions: for induction of apoptosis: 1 μM at a fluence of 30 kJ/m^2
Method: Mouse lymphoma L5178y-R (hereinafter also referred to as "LY-R") cells were grown in suspension culture as described in Ramakrishnan N., Oleinick, N. L. Clay, M. E., Horng, M. F., Antunez, A. R., and Evans H. H., DNA lesions and DNA degradation in mouse lymphoma L5178Y cells after photodynamic treatment sensitized by chloroaluminum phthalocyanine. Photochem. Photobiol. 50, 373-378, 1989 and Agarwal, M. L., Clay, M. E., Harvey, E. J., Evans, H. H., Antunez, A. R., and Oleinick, N. L. Photodynamic therapy induces rapid cell death by apoptosis in L5178Y mouse lymphoma cells. Cancer Res., 51, 5993-5996, 1991.
The cells were used while in exponential growth. Stock solutions of either 0.5 or 1 mM of PcIV, PcXII, PcX, PcXVIII were prepared in dimethylformamide unless otherwise indicated and added to the 10 mL medium at a rate of 1 μL per mL. After allowing 18 hours for uptake of the phthalocyanine into the cells, the flasks containing the cultures were placed on a glass exposure tray above a 500-W tungsten-halogen lamp. The exposure tray was fitted with a 600-nm high-pass filter. Flasks were exposed to various fluences of red light (up to 30 kJ/m^2) at a fluence rate of approximately 74 W/m^2). After irradiation, the cells were collected by centrifugation.
For measurement of clonogenic cell survival, aliquots were plated in medium containing soft agar as described in Ramakrishnan N., Oleinick, N. L. Clay, M. E., Horng, M. F., Antunez, A. R., and Evans H. H., DNA lesions and DNA degradation in mouse lymphoma L5178Y cells after photodynamic treatment sensitized by chloroaluminum phthalocyanine. Photochem. Photobiol. 50, 373-378, 1989. The aliquots were plated in sufficient numbers to produce 50-200 colonies. The dishes were kept in an incubator at 37° C. in an atmosphere of 5% CO2 and 95% air for 10-14 days to allow viable cells to form colonies. Colonies were counted by eye. Controls treated with the phthalocyanine alone had plating efficiencies of ~90%. The plating efficiencies of the treated cells are normalized to the plating efficiencies of control cells in each experiment. For measurement of the induction of apoptosis, DNA was isolated from the treated and control cells 2 hours after photodynamic therapy, subjected to electrophoresis on 1.5% agarose, stained with ethidium bromide, and visualized by UV transillumination, as described in Agarwal et. al. The results are shown in Tables 4, 5 and 6 and in FIG. 3.
Cells were treated with various concentrations of the compounds listed in the table and various light fluences. DNA gels were prepared and examined for the characteristic "ladder" pattern of DNA fragments. For each Pc, the minimum total PDT dose tested (calculated as the product of the minimum phthalocyanine concentration and the minimum fluence) which produced visible DNA fragments is recorded. […] PcXVIII was also added at 0.5 and 1.0 μM.

V79 cells [1] = assay: Uptake of additional phthalocyanines into V79 cells (Table 2); conditions: for Uptake into V79 cells: 18 hours; for Uptake into V79 cells, composite value: average of all data; for Uptake (from Table 2): repeated in Table 3; for dependence of uptake on phthalocyanine concentration: V79 cells, 1-4 μM; for Uptake into V79 cells, composite value (asterisk): asterisk: listed value is for 1 μM, average would be higher
Method: V79 cells Chinese hamster lung fibroblasts were cultured using the cell culture methods described above. […] When the filters were dry, the phthalocyanines were extracted into ethanol and the absorption determined at the peak wavelength, usually 668 nm.

V79 cells [2] = assay: Clonogenicity, killing of V79 cells using photodynamic therapy (Table 3); type: cell-based, Chinese hamster
Method: Using the cell culture methods described above, V79 cells Chinese hamster lung fibroblasts were treated with either 0.5 or 1.0 μM of the phthalocyanines listed in Table 3. About 18 hours thereafter, the cells were irradiated with increasing doses of 675 nm broad band red light from a 500 W tungsten-halogen lamp fitted with a 600 nm high pass filter, to determine the light dosage that would kill 90% of the phthalocyanine treated cells. Where 90% of the cells were not killed, the maximum percent of cells killed were determined, (expressed as % survival) and the related light dosage recorded.

RIF-1 tumors = assay: PDT of RIF-1 implanted tumors (Table 7); type: in vivo, C3H/HeN mice; conditions: 5 mg/kg in phosphate buffered saline; 675 nm, 135 J/cm^2
Method: The relative effectiveness at reducing tumor volume of selected phthalocyanine compounds at a given dosage was compared in vivo. RIF-1, i.e., radiation-induced fibrosarcoma, tumors were implanted into the backs of C3H/HeN mice. One tumor was implanted per mouse. Each of the phthalocyanine compounds listed in Table 7 was sonicated and vortexed in corn oil to produce a suspension. When the tumors reached […] in diameter and 2-3 mm in thickness, each mouse received 1 mg/kg in 0.1 ml of the corn oil, of the phthalocyanine suspension. For comparison, select mice received a conventional photosensitizer; either 5 mg/kg of chloroaluminum phthalocyanine tetrasulfonate, herein also referred to as "AlPcTS" in phosphate buffered saline or 5 mg/kg of Photofrin®-II in 5% dextrose. Twenty-four hours after the photosensitizers were administered, the tumors were irradiated with visible radiation delivered by an argon-pumped dye laser. The mice that received a phthalocyanine photosensitizer received light having a wavelength of 675 nm and the mice that received the Photofrin® II photosensitizer received light having a wavelength of 630 nm. Each tumor received 135 J/cm^2 of radiation. Tumor size was measured every day using calipers. The initial tumor volume was 50±10 mm^3. Tumor volume was calculated according to the hemiellipsoid model by the formula: [formula] Where l is length Where W is width

[3] = Cricetulus griseus, V79, 1 μM, at 10 kJ/m^2, read-out: Maximum Effect (% survival)
[4] = Cricetulus griseus, V79, 0.5 μM, at 10 kJ/m^2, read-out: Maximum Effect (% survival)

Compound | Uptake into V79 cells (V79 cells [1]; 1 μM) | Uptake into V79 cells (V79 cells [1]; 4 μM) | Uptake into V79 cells, composite value (V79 cells [1]) | Uptake (from Table 2) (V79 cells [1]) | also measured
C[Si](C)(CCCCNC(=S)N[C@@H]1O[C@H](CO)[C@@H](O)[C@H](O)[C@H]1O)O[Si]1(O[Si](C)(C)CCCCNC(=S)N[C@@H]2O[C@H](CO)[C@@H](O)[C@H](O)[C@H]2O)n2c3c4ccccc4c2N=C2N=C(N=c4c5ccccc5c(n41)=NC1=NC(=N3)c3ccccc31)c1ccccc12 [Compound XI, SiPc[OSi(CH3)2 (CH2)4 NHCSNHC6 H11l O5 ]2] | 0.1 n Moles/10^6 cells | 0.3 ± 0.1 n Moles/10^6 cells | 0.1 n Moles/10^6 cells/μM | 0.1 n Moles/10^6 cells/μM | induction of apoptosis (L5178Y cells): did not induce apoptosis; Cell survival at highest light dose at 1 µM (V79 cells [2]; Cricetulus griseus, V79, 1 μM, at 20 kJ/m^2, read-out: Maximum Effect (% survival)): 100%
CC(=O)OCCC[Si](C)(C)O[Si]1(O)n2c3c4ccccc4c2N=C2N=C(N=c4c5ccccc5c(n41)=NC1=NC(=N3)c3ccccc31)c1ccccc12 (stereo not shown) [Compound XIII, HOSiPcOSi(CH3)2 (CH2)3 OCOCH3] |  | 1.7 ± 0.3 n Moles/10^6 cells | 0.4 n Moles/10^6 cells/μM | 0.4 n Moles/10^6 cells/μM | Cell survival at highest light dose at 1 µM (V79 cells [2]; Cricetulus griseus, V79, 1 μM, at 15 kJ/m^2, read-out: Maximum Effect (% survival)): 88%
C[Si](C)(CCCN1CCOCC1)O[Si]1(O)n2c3c4ccccc4c2N=C2N=C(N=c4c5ccccc5c(n41)=NC1=NC(=N3)c3ccccc31)c1ccccc12 (stereo not shown) [Compound XIX, HOSiPcOSi(CH3)2 (CH2)3 NC4 H8 O] | 0.3 ± 0.1 n Moles/10^6 cells | 2.4 ± 0.5 n Moles/10^6 cells |  | 1.3 n Moles/10^6 cells/μM | uptake by V79 cells (in words) (V79 cells [1]): poor uptake; dependence of uptake on phthalocyanine concentration (V79 cells [1]): not linearly dependent upon the phthalocyanine concentration; Uptake into V79 cells, composite value (asterisk) (V79 cells [1]): 0.3 n Moles/10^6 cells/μM; Cell survival at highest light dose at 1 µM (V79 cells [2]; [3]): 81%; photosensitizing activity, killing V79 cells (in words) (V79 cells [2]; discussion of Table 3): less active as a photosensitizer
CCN(CC)c1ccc2c(c1)Oc1cc(N(CC)CC)ccc1C21c2ccccc2C(=O)N1CCCC[Si](C)(C)O[Si]1(O[Si](C)(C)C(C)(C)C)n2c3c4ccccc4c2N=C2N=C(N=c4c5ccccc5c(n41)=NC1=NC(=N3)c3ccccc31)c1ccccc12 (stereo not shown) [Compound XV, (CH3)3 C(CH3)2 SiOSiPcOSi(CH3)2 (CH2)4 NCOC27 H30 N2 O] | 0.01 ± 0.01 n Moles/10^6 cells | 0.14 ± 0.12 n Moles/10^6 cells | < 0.05 n Moles/10^6 cells/μM | 0.05 n Moles/10^6 cells/μM | induction of apoptosis (L5178Y cells): did not induce apoptosis; Cell survival at highest light dose at 4 µM (V79 cells [2]; Cricetulus griseus, V79, 4 μM, at 20 kJ/m^2, read-out: Maximum Effect (% survival)): 81%
C[Si](C)(CCCO)O[Si]1(O)n2c3c4ccccc4c2N=C2N=C(N=c4c5ccccc5c(n41)=NC1=NC(=N3)c3ccccc31)c1ccccc12 (stereo not shown) [Compound XVII, HOSiPCOSi(CH3)2 (CH2)3 OH] |  | 1.7 ± 0.2 n Moles/10^6 cells | 0.4 n Moles/10^6 cells/μM | 0.4 n Moles/10^6 cells/μM | Cell survival at highest light dose at 1 µM (V79 cells [2]; [3]): 19%
CN(C)CCCCCCCC[Si](C)(C)O[Si]1(O)n2c3c4ccccc4c2N=C2N=C(N=c4c5ccccc5c(n41)=NC1=NC(=N3)c3ccccc31)c1ccccc12 (stereo not shown) [Compound XXII, HOSiPcOSi(CH3)2 (CH2)8 N(CH3)2] |  |  |  |  | Minimum Demonstrated Condition to induce apoptosis: C × F (L5178Y cells; 0.5 μM): 5.0 μm × kJ/m^2; Minimum Demonstrated Condition to induce apoptosis: Fluence (L5178Y cells; 0.5 μM): 10.0 kJ/m^2; LD 90 (V79 cells [2]; 0.5 μM, 18 h, light dose killing 90% of cells): 10 kJ/m^2
C[Si](C)(CCCN1CCSCC1)O[Si]1(O)n2c3c4ccccc4c2N=C2N=C(N=c4c5ccccc5c(n41)=NC1=NC(=N3)c3ccccc31)c1ccccc12 (stereo not shown) [Compound XXIV, HOSiPCOSi(CH3)2 (CH2)3 NC4 H8 S] | 0.003 ± 0.001 n Moles/10^6 cells | 1.3 ± 0.1 n Moles/10^6 cells |  | < 0.05 n Moles/10^6 cells/μM | dependence of uptake on phthalocyanine concentration (V79 cells [1]): not linearly dependent upon the phthalocyanine concentration; Uptake into V79 cells, composite value (asterisk) (V79 cells [1]): < 0.05 n Moles/10^6 cells/μM; Cell survival at highest light dose at 0.5 µM (V79 cells [2]; [4]): 100%
CCCCN(CCCC)CCC[Si](C)(C)O[Si]1(O)n2c3c4ccccc4c2N=C2N=C(N=c4c5ccccc5c(n41)=NC1=NC(=N3)c3ccccc31)c1ccccc12 (stereo not shown) [Compound XXV, HOSiPcOSi(CH3)2 (CH2)3 N(CH2)3 CH3)2] | 0.02 ± 0.02 n Moles/10^6 cells | 1.5 ± 0.3 n Moles/10^6 cells |  | < 0.05 n Moles/10^6 cells/μM | dependence of uptake on phthalocyanine concentration (V79 cells [1]): not linearly dependent upon the phthalocyanine concentration; Uptake into V79 cells, composite value (asterisk) (V79 cells [1]): < 0.05 n Moles/10^6 cells/μM; Cell survival at highest light dose at 0.5 µM (V79 cells [2]; Cricetulus griseus, V79, 0.5 μM, at 8 kJ/m^2, read-out: Maximum Effect (% survival)): 87%
C[Si](C)(CCCN=C=S)O[Si]1(O)n2c3c4ccccc4c2N=C2N=C(N=c4c5ccccc5c(n41)=NC1=NC(=N3)c3ccccc31)c1ccccc12 (stereo not shown) [Compound XXVI, HOSiPcOSi(CH3)2 (CH2)3 NCS] |  |  |  |  | Cell survival at highest light dose at 1 µM (V79 cells [2]; Cricetulus griseus, V79, read-out: Maximum Effect (% survival)): 100%
CCCCN1CCN(CCC[Si](C)(C)O[Si]2(O)n3c4c5ccccc5c3N=C3N=C(N=c5c6ccccc6c(n52)=NC2=NC(=N4)c4ccccc42)c2ccccc23)CC1 (stereo not shown) [Compound XXXI, HOSiPCOSi(CH3)2 (CH2)3 NC4 H8 N(CH2)3 CH3] |  |  | 0.3 n Moles/10^6 cells/μM | 0.3 n Moles/10^6 cells/μM | Uptake into V79 cells (V79 cells [1]; 2 μM): 0.61 ± 0.1 n Moles/10^6 cells; Cell survival at highest light dose at 0.5 µM (V79 cells [2]; [4]): 30%
chloroaluminum phthalocyanine tetrasulfonate [AlPcTS, reference compound] |  |  |  |  | Doubling Time of Initial Tumor Volume after PDT (RIF-1 tumors): 7 days
